These are literature values, as cited in patent publication US20260373126A1, “COMPOSITIONS AND METHODS OF TREATING CANCER” (Board of Supervisors of Louisiana State University and …, priority 2022, published 2026).

The test system of this series is mitochondrial respiration. The note with it: reference 2.

On to `CC(C)OC(=O)C(C)(C)Oc1ccc(C(=O)c2ccc(Cl)cc2)cc1` [FF, Fenofibrate], for which the mitochondrial respiration entry is “blocked mitochondrial respiration”.
